In patent publication US11554091B2, “Composition for enhancing skin elasticity or improving skin wrinkles comprising heptahydroxyflavan as an effective ingredient” (AMOREPACIFIC CORPORATION, priority 2019, dated 2023):

Test system: MMP-1
Experiment: MMP-1 expression level by MMP-1 ELISA kit, UV-stimulated HaCaT cell culture and human fibroblast culture
Format: cell-based
Conditions: for MMP-1 production: Control = 100, UV = 260.4; for effect of inhibiting MMP-1 as compared to catechin or epicatechin: Table 1 and FIG. 3
Procedure: Then, after replacing the medium with an FBS-free DMEM medium to starve the cells, they were treated with UV on the next day.
Then, the cells were starved by replacing the medium with an FBM medium with no supplement. Then, the UV-stimulated HaCaT cell culture and the human fibroblast culture were treated with a total of 6 samples prepared by dissolving the (2R,3S)-heptahydroxyflavan and (2R,3R)-heptahydroxyflavan obtained in Example 1 in 5% DMSO to concentrations of 5 μg/mL (=about 15.5 μM), 10 μg/mL (=about 31.0 μM) and 20 μg/mL (=about 62.1 μM), respectively. As comparative examples, the cultures were treated with a total of 6 samples prepared by dissolving catechin and epicatechin in 5% DMSO at concentrations of 25 μM, 50 μM and 100 μM, respectively.
After the treatment with the samples, the expression level of MMP-1 was measured using the MMP-1 ELISA kit (R&D Systems). Separately from this, positive control groups were treated with 10 μM EGCG or 10 μM retinoic acid instead of heptahydroxyflavan in the same manner as described above.

Row | Compound | MMP-1 production (5 μg/mL) | MMP-1 production (10 μg/mL) | MMP-1 production (20 μg/mL) | effect of inhibiting MMP-1 as compared to catechin or epicatechin | MMP-1 production (10 μM) | MMP-1 production (25 μM) | MMP-1 production (50 μM) | MMP-1 production (100 μM)
1 | Oc1ccc([C@H]2Oc3c(O)c(O)c(O)c(O)c3C[C@@H]2O)cc1O [APNP-054] | 282.1 | 267.7 | 183.2 | remarkably superior effect of inhibiting MMP-1 | – | – | – | –
2 | Oc1ccc([C@H]2Oc3c(O)c(O)c(O)c(O)c3C[C@H]2O)cc1O [APNP-055] | 281.0 | 286.6 | 160.6 | remarkably superior effect of inhibiting MMP-1 | – | – | – | –
3 | O=C(O[C@@H]1Cc2c(O)cc(O)cc2O[C@@H]1c1cc(O)c(O)c(O)c1)c1cc(O)c(O)c(O)c1 [EGCG] | – | – | – | – | 115.4 | – | – | –
4 | Oc1cc(O)c2c(c1)O[C@H](c1ccc(O)c(O)c1)[C@H](O)C2 [Epicatechin, epicatechin] | – | – | – | – | – | 294.8 | 289.1 | 196.2
5 | CC1=C(/C=C/C(C)=C/C=C/C(C)=C/C(=O)O)C(C)(C)CCC1 [RA, retinoic acid] | – | – | – | – | 104.5 | – | – | –
6 | catechin | – | – | – | – | – | 308.2 | 287.4 | 257.3
